From ChEMBL document CHEMBL3112471, “Synthesis and evaluation of anti-tubercular activity of 6-(4-substitutedpiperazin-1-yl) phenanthridine analogues” (Eur J Med Chem, 2014) come the findings set out here.

The structures appear in SMILES notation. Values after ≈ are worked out from the molar mass of the structure shown. Some results are limits rather than exact numbers.

The subject of data set [1] is Mycobacterium tuberculosis. As to the kind of experiment: Antitubercular activity against Mycobacterium tuberculosis H37Rv after 5 days by microplate Alamar Blue assay. The data set is classed as functional. Conditions: 120 h.
Data set [2] can be described thus: Selectivity index, ratio of IC50 for mouse RAW264.7 cells to MIC for Mycobacterium tuberculosis H37Rv. Format: toxicity. Conditions: read-out: Selectivity Index.
Data set [3] in a line: Cytotoxicity against mouse RAW264.7 cells at 50 uM after 72 hrs by MTT assay. Format: cell-based. To be noted: read-out: INH. Background: Tetrazolium assays rely on reduction of a dye to a coloured formazan, in cell work by metabolically active cells.
Another data set deals with RAW264.7. As to the kind of experiment: Cytotoxicity against mouse RAW264.7 cells after 72 hrs by MTT assay. Format: cell-based. Conditions: RAW264.7, 72 h.

Take `c1ccc2c(c1)nc(N1CCNCC1)c1ccccc12`: the MIC99 in data set [1] is 25 µg/mL (≈ 94.9 µM).
In turn, `COc1ccc2nc(C)cc(SCc3ccc(C(C)(C)C)cc3)c2c1` came in with a minimum inhibitory concentration (MIC) in data set [1] of 0.01 µg/mL (≈ 0.0284 µM).
Consider `O=[N+]([O-])c1ccc(N2CCN(c3nc4ccccc4c4ccccc34)CC2)cc1`, for which the selectivity ratio in data set [2] is over 25. In addition, the cytotoxicity at 72 h, 50 µM in data set [3] was 21.4%. Also, the IC50 in the data set with RAW264.7 is over 40 µg/mL. The compound also registered an MIC99 in data set [1] of 1.56 µg/mL (≈ 4.06 µM).
Consider `C=Cc1ccc(CN2CCN(c3nc4ccccc4c4ccccc34)CC2)cc1`, for which the MIC99 in data set [1] is 25 µg/mL (≈ 65.9 µM).
As to `CO[C@H]1/C=C/O[C@@]2(C)Oc3c(C)c(O)c4c(O)c(c(/C=N/N5CCN(C)CC5)c(O)c4c3C2=O)NC(=O)/C(C)=C\C=C\[C@H](C)[C@H](O)[C@@H](C)[C@@H](O)[C@@H](C)[C@H](OC(C)=O)[C@@H]1C` [RIFAMPIN], in data set [1], the MIC99 is 0.02 µg/mL (≈ 0.0243 µM).
On the same count and under the same terms, the same measure for `Clc1ccccc1N1CCN(c2nc3ccccc3c3ccccc23)CC1`: 6.25 µg/mL (≈ 16.7 µM); for `Oc1cccc(N2CCN(c3nc4ccccc4c4ccccc34)CC2)c1`: 3.12 µg/mL (≈ 8.79 µM).
`CCN1CCN(c2nc3ccccc3c3ccccc23)CC1`: the MIC99 in data set [1] was determined as 6.25 µg/mL (≈ 21.4 µM).
As to `N#Cc1ccccc1N1CCN(c2nc3ccccc3c3ccccc23)CC1`, the MIC99 in data set [1] was 50 µg/mL (≈ 137 µM).
In the case of `c1ccc(N2CCN(c3nc4ccccc4c4ccccc34)CC2)nc1`, the selectivity ratio in data set [2] is over 25. In addition, the cytotoxicity at 72 h, 50 µM in data set [3] was found to be 16.4%. Besides, the IC50 in the data set on RAW264.7 was over 40 µg/mL. In addition, the MIC99 in data set [1] came out at 1.56 µg/mL (≈ 4.58 µM).
As to `Cc1cccc(N2CCN(c3nc4ccccc4c4ccccc34)CC2)c1`, the MIC99 in data set [1] is 6.25 µg/mL (≈ 17.7 µM).
In data set [1], `O=C(O)c1cn(C2CC2)c2cc(N3CCN(C(=O)CN4CCN(c5nc6ccccc6c6ccccc56)CC4)CC3)c(F)cc2c1=O` had an MIC99 of 12.5 µg/mL (≈ 19.7 µM).
On to `c1ccc(CCN2CCN(c3nc4ccccc4c4ccccc34)CC2)cc1`, for which, in data set [1], the MIC99 was found to be 6.25 µg/mL (≈ 17 µM).
Consider `COc1ccc2cc(/C=N/Nc3ccnc4cc(OC)ccc34)ccc2c1`, for which inhibition of growth in data set [1] (MIC) required 0.22 µg/mL (≈ 0.616 µM).
In turn, `CN1CCN(c2nc3ccccc3c3ccccc23)CC1` returned an MIC99 in data set [1] of 6.25 µg/mL (≈ 22.5 µM).
On to `c1cnc(N2CCN(c3nc4ccccc4c4ccccc34)CC2)nc1`, for which the selectivity ratio in data set [2] was over 25. Also, the cytotoxicity at 72 h, 50 µM in data set [3] turned out to be 18.2%. Also, in the data set on RAW264.7, the IC50 is over 40 µg/mL. The compound further registered an MIC99 in data set [1] of 1.56 µg/mL (≈ 4.57 µM).
With `NNC(=O)c1ccncc1` [ISONIAZID], in data set [1], the MIC99 came to 0.36 µg/mL (≈ 2.63 µM).
On the same count and under the same terms, the same measure for `Clc1ccc(N2CCN(c3nc4ccccc4c4ccccc34)CC2)cc1`: 50 µg/mL (≈ 134 µM); for `c1ccc(C(c2ccccc2)N2CCN(c3nc4ccccc4c4ccccc34)CC2)cc1`: 3.12 µg/mL (≈ 7.27 µM).
In data set [1], `COc1cccc(N2CCN(c3nc4ccccc4c4ccccc34)CC2)c1` came in with an MIC99 of 12.5 µg/mL (≈ 33.8 µM).
In data set [1], `C(=C\c1ccccc1)/CN1CCN(c2nc3ccccc3c3ccccc23)CC1` yielded an MIC99 of 25 µg/mL (≈ 65.9 µM).

For orientation: MIC99 means the lowest concentration that inhibits either 99% of growth or 99% of the strains tested, depending on the study. A lower MIC99 goes with greater potency. As a reminder, the MIC is the lowest concentration that inhibits growth of the organism. A high value points to a less susceptible organism. Broadly, the IC50 is the point on the concentration scale where inhibition reaches its midpoint.
